Data as given in US8575091B1, “Amylin analogues and pharmaceutical compositions thereof” (Novo Nordisk A/S, priority 2012, dated 2013).
Read-outs that look alike come from different tables or passages of the source. Numbered stars: 1 amine (or outer) side, 2 acyl side, 3 side chain; on linkers, the order of the positions; unused ones are H or OH. Bridge positions count the residues as written; N and C are the ends. Side chains are listed from the residue outwards. Peptide text beside a SMILES is read from it. * marks the point of attachment. C20 diacid = O=C(O)CCCCCCCCCCCCCCCCCCC(=O)*; γGlu = O=C(O)[C@H](CCC(=O)[*:2])N[*:1]

Tests used:
[1] = molecular target: T1, human amylin receptor (Homo sapiens, UniProt O60896+P30988); test: Assay (V) binding to the human amylin receptor (SPA, 125I-rat amylin); settings: for IC50: human amylin receptor membranes, SPA, read-out: hAmylin-R bind IC50
T1 construct: expressed in transfected cells
T1 sequence (P30988 25-474): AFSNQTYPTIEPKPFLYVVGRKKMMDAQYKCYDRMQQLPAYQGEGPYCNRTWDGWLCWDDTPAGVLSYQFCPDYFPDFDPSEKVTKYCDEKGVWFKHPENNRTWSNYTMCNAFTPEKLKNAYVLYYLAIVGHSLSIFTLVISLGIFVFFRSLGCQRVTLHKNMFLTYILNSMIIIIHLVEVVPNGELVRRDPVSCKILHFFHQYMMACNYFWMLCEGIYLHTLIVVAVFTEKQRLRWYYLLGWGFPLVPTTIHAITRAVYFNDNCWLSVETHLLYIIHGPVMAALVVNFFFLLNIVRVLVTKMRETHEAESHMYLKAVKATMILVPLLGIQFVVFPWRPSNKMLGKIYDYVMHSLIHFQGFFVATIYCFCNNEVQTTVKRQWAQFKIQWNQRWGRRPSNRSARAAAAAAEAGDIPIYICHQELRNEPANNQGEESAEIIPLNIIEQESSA
T1 sequence (O60896 24-148 partner): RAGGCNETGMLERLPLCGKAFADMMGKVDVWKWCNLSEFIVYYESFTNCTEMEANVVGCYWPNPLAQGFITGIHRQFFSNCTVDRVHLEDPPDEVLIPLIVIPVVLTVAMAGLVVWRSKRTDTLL
Method in brief: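 IC50, taken as receptor affinity, came from one-site binding competition analysis of scintillation proximity counts. Amylin 3(a)/CRE-luc cell membranes (35 ng/μL final) were mixed with SPA beads (0.05 mg/well) in 50 mM Hepes pH 7.4 containing CaCl2, MgCl2, 0.1% OA and 0.02% Tween20.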

[2] = molecular target: T2, human amylin receptor (amylin 3(a) receptor: human calcitonin receptor + RAMP-3) (Homo sapiens, UniProt O60896+P30988); test: Assay (II)a functional assay, human amylin receptor (CRE luciferase, BHK cells); assay type: cell-based; settings: for EC50: read-out: hAmylin-R funct. EC50
T2 construct: expressed in transfected cells
T2 sequence (P30988 25-474): T1 sequence (P30988 25-474)
T2 sequence (O60896 24-148 partner): T1 sequence (O60896 24-148 partner)

[3] = molecular target: T3, human calcitonin receptor (Homo sapiens, UniProt P30988); test: Assay (II)a functional assay, human calcitonin receptor (CRE luciferase, BHK cells);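 also: luminescence from a CRE-driven luciferase reporter, read by single photon counting after cells were exposed to test samples for 3 h at 37 °C under 5% CO2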; assay type: cell-based; settings: read-out: hCTR funct. EC50
T3 construct: expressed in transfected cells
T3 sequence (P30988 25-474): T1 sequence (P30988 25-474)

[4] = molecular target: T3, human calcitonin receptor; test: Assay (VII) binding to the human calcitonin receptor (SPA, 125I-Calcitonin); settings: read-out: hCTR bind IC50;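 also: cell membranes coupled to SPA beads, competitive displacement read by scintillation counting, IC50 derived from a one-site competition fit as a measure of receptor affinity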
[5] = Table 7b, human calcitonin receptor binding IC50 divided by human amylin receptor binding IC50
[6] = human binding ratio, included for comparison
[7] = functional assay, human amylin receptor

Q: How did the “Ratio hCT/hAmylin binding” value [1, 5] turn out when CC[C@H](C)[C@H](NC(=O)[C@H](C)NC(=O)CNC(=O)[C@H](Cc1ccccc1)NC(=O)[C@H](CC(N)=O)NC(=O)[C@@H]1CCCN1C(=O)[C@H](CO)NC(=O)[C@H](CO)NC(=O)[C@H](Cc1c[nH]cn1)NC(=O)[C@H](CCCNC(=N)N)NC(=O)[C@H](CC(C)C)NC(=O)[C@H](Cc1ccccc1)NC(=O)[C@H](CCC(=O)O)NC(=O)[C@H](C)NC(=O)[C@H](CC(C)C)NC(=O)[C@H](CCCNC(=N)N)NC(=O)[C@H](CCC(N)=O)NC(=O)[C@@H](NC(=O)[C@H](C)NC(=O)[C@@H]1CSSC[C@H](NC(=O)[C@@H](N)CCCCNC(=O)CC[C@H](NC(=O)CC[C@H](NC(=O)CCCCCCCCCCCCCCCCCCC(=O)O)C(=O)O)C(=O)O)C(=O)N[C@@H](CC(N)=O)C(=O)N[C@@H]([C@@H](C)O)C(=O)N[C@@H](C)C(=O)N[C@@H]([C@@H](C)O)C(=O)N1)[C@@H](C)O)C(=O)N1CCC[C@H]1C(=O)N[C@@H](CO)C(=O)N[C@@H](CO)C(=O)N[C@H](C(=O)N[C@@H](CC(N)=O)C(=O)N[C@H](C(=O)NCC(=O)N1CCC[C@H]1C(=O)N[C@@H](CC(N)=O)C(=O)N[C@H](C(=O)N[C@@H](Cc1ccccc1)C(N)=O)[C@@H](C)O)C(C)C)[C@@H](C)O [Example 127] (H-K([γGlu-γGlu-C20 diacid])CNTATCATQRLAEFLRHSSPNFGAIPSSTNVGPNTF-NH2; disulfide 2-7) was run?
A: The value was 18.0.

Q: And the IC50 [1]?
A: The IC50 was 0.152 nM.

Q: What about the “Ratio hCT/hAmylin binding” value [1, 6] of the same molecule?
A: Its value is 18.0.

Q: What about the “Ratio hCT/hAmylin funct.” value ([2]; Table 6, human functional selectivity (hCTR EC50 / hAmylin-R EC50)) of the same molecule?
A: The value was 9.9.

Q: What about the “Ratio hCT/hAmylin funct.” value ([2]; Table 6a, human functional selectivity (hCTR EC50 / hAmylin-R EC50), at least 5) of the same molecule?
A: The value was 9.9.

Q: And the “Ratio hCT/hAmylin funct.” value ([2]; Table 6i, hCTR funct. EC50 / hAmylin-R funct. EC50)?
A: The value was 9.9.

Q: What about the EC50 ([2]; Table 6i, human amylin receptor functional) of the same molecule?
A: Its EC50 is 0.216 nM.

Q: And the “Ratio hCT/hAmylin funct.” value ([2]; Table 6j, hCTR funct. EC50 / hAmylin-R funct. EC50)?
A: The value was 9.9.

Q: What about the “Ratio hCT/hAmylin funct.” value ([2]; Table 6k, hCTR funct. EC50 / hAmylin-R funct. EC50) of the same molecule?
A: The value was 9.9.

Q: And the EC50 [3]?
A: The EC50 was 2.14 nM.

Q: And the IC50 [4]?
A: The IC50 was 2.73 nM.

Q: Which results are given for CC[C@H](C)[C@H](NC(=O)[C@H](C)NC(=O)CNC(=O)[C@H](Cc1ccccc1)NC(=O)[C@H](CC(N)=O)NC(=O)[C@@H]1CCCN1C(=O)[C@H](CO)NC(=O)[C@H](CO)NC(=O)[C@H](Cc1c[nH]cn1)NC(=O)[C@H](CCCNC(=N)N)NC(=O)[C@H](CC(C)C)NC(=O)[C@H](Cc1ccccc1)NC(=O)[C@H](CCC(=O)O)NC(=O)[C@H](C)NC(=O)[C@H](CC(C)C)NC(=O)[C@H](CCCNC(=N)N)NC(=O)[C@H](CCC(N)=O)NC(=O)[C@@H](NC(=O)[C@H](C)NC(=O)[C@@H]1CSSC[C@H](NC(=O)[C@@H](N)CCCCNC(=O)CC[C@H](NC(=O)CCCCCCCCCCCCCCCCCCC(=O)O)C(=O)O)C(=O)N[C@@H](CC(N)=O)C(=O)N[C@@H]([C@@H](C)O)C(=O)N[C@@H](C)C(=O)N[C@@H]([C@@H](C)O)C(=O)N1)[C@@H](C)O)C(=O)N1CCC[C@H]1C(=O)N[C@@H](CO)C(=O)N[C@@H](CO)C(=O)N[C@H](C(=O)N[C@@H](CC(N)=O)C(=O)N[C@H](C(=O)NCC(=O)N[C@@H](CO)C(=O)N[C@@H](Cc1c[nH]cn1)C(=O)N[C@H](C(=O)N[C@@H](Cc1ccc(O)cc1)C(N)=O)[C@@H](C)O)C(C)C)[C@@H](C)O [Example 128] (H-K([γGlu-C20 diacid])CNTATCATQRLAEFLRHSSPNFGAIPSSTNVGSHTY-NH2; disulfide 2-7)?
A: IC50 [1]: 0.992 nM; EC50 [2, 7]: 0.425 nM; EC50 [3]: 5.58 nM; IC50 [4]: 26.1 nM

Q: What does the source list for CC[C@H](C)[C@H](NC(=O)[C@H](C)NC(=O)CNC(=O)[C@H](Cc1ccccc1)NC(=O)[C@H](CC(N)=O)NC(=O)[C@@H]1CCCN1C(=O)[C@H](CO)NC(=O)[C@H](CO)NC(=O)[C@H](Cc1c[nH]cn1)NC(=O)[C@H](CCCNC(=N)N)NC(=O)[C@H](CC(C)C)NC(=O)[C@H](Cc1ccccc1)NC(=O)[C@H](CC(=O)O)NC(=O)[C@H](C)NC(=O)[C@H](CC(C)C)NC(=O)[C@H](CCCNC(=N)N)NC(=O)[C@H](CCC(N)=O)NC(=O)[C@@H](NC(=O)[C@H](C)NC(=O)[C@@H]1CSSC[C@H](NC(=O)[C@@H](N)CCCCNC(=O)CC[C@H](NC(=O)CC[C@H](NC(=O)CCCCCCCCCCCCCCCCCCC(=O)O)C(=O)O)C(=O)O)C(=O)N[C@@H](CC(N)=O)C(=O)N[C@@H]([C@@H](C)O)C(=O)N[C@@H](C)C(=O)N[C@@H]([C@@H](C)O)C(=O)N1)[C@@H](C)O)C(=O)N1CCC[C@H]1C(=O)N[C@@H](CO)C(=O)N[C@@H](CO)C(=O)N[C@H](C(=O)N[C@@H](CC(N)=O)C(=O)N[C@H](C(=O)NCC(=O)N1CCC[C@H]1C(=O)N[C@@H](CCCNC(=N)N)C(=O)N[C@H](C(=O)N[C@@H](Cc1ccc(O)cc1)C(N)=O)[C@@H](C)O)C(C)C)[C@@H](C)O [Example 130] (H-K([γGlu-γGlu-C20 diacid])CNTATCATQRLADFLRHSSPNFGAIPSSTNVGPRTY-NH2; disulfide 2-7)?
A: Ratio hCT/hAmylin binding [1, 5]: 280.0; Ratio hCT/hAmylin binding ([1]; Table 7c, human calcitonin receptor binding IC50 divided by human amylin receptor binding IC50): 280.0; IC50 [1]: 0.453 nM; Ratio hCT/hAmylin binding [1, 6]: 280.0; EC50 [2, 7]: 0.162 nM; EC50 [3]: 7.28 nM; IC50 [4]: 127 nM

Q: With CC[C@H](C)[C@H](NC(=O)[C@H](C)NC(=O)CNC(=O)[C@H](Cc1ccccc1)NC(=O)[C@H](CC(N)=O)NC(=O)[C@@H]1CCCN1C(=O)[C@H](CO)NC(=O)[C@H](CO)NC(=O)[C@H](Cc1c[nH]cn1)NC(=O)[C@H](CCCNC(=N)N)NC(=O)[C@H](CC(C)C)NC(=O)[C@H](Cc1ccccc1)NC(=O)[C@@H](CC(=O)O)NC(=O)[C@H](C)NC(=O)[C@H](CC(C)C)NC(=O)[C@H](CCCNC(=N)N)NC(=O)[C@H](CCC(N)=O)NC(=O)[C@@H](NC(=O)[C@H](C)NC(=O)[C@@H]1CSSC[C@H](NC(=O)[C@@H](N)CCCCNC(=O)CC[C@H](NC(=O)CC[C@H](NC(=O)CCCCCCCCCCCCCCCCCCC(=O)O)C(=O)O)C(=O)O)C(=O)N[C@@H](CC(N)=O)C(=O)N[C@@H]([C@@H](C)O)C(=O)N[C@@H](C)C(=O)N[C@@H]([C@@H](C)O)C(=O)N1)[C@@H](C)O)C(=O)N1CCC[C@H]1C(=O)N[C@@H](CO)C(=O)N[C@@H](CO)C(=O)N[C@H](C(=O)N[C@@H](CC(N)=O)C(=O)N[C@H](C(=O)NCC(=O)N[C@@H](CO)C(=O)N[C@@H](CCCNC(=N)N)C(=O)N[C@H](C(=O)N[C@@H](Cc1ccc(O)cc1)C(N)=O)[C@@H](C)O)C(C)C)[C@@H](C)O [Example 131] as the molecule, how does the IC50 [1] read?
A: Its IC50 is 0.365 nM.

Q: What about the EC50 [2, 7] of the same molecule?
A: The EC50 was 0.383 nM.

Q: And the EC50 [3]?
A: The EC50 was 100 nM.

Q: What about the IC50 [4] of the same molecule?
A: The IC50 was 112 nM.
